{"source": "patent US8957228B2", "about": "“Macrolide compound having anticancer effect” (Tohoku University, priority 2010, dated 2015)", "key": {"[1]": {"system": "A549, H460 and A172 cell lines", "experiment": "Antiproliferative activity test (Alamar Blue, 72 hours), statements across cell lines", "assay_type": "cell-based, human", "conditions": "result in words; for induction of cell death: no data are shown", "excerpt": "(§1) Antiproliferative activities of exiguolide and its analogs shown in Examples were examined using A549 and H460 cell lines derived from lung cancer and an A172 cell line derived from human glioblastoma cells. Each cell line was maintained in an RPMI 1640 medium supplemented with 10% fetal bovine serum (in the cases of the H460 cell line and the A172 cell line) or in a DMEM medium supplemented with 10% fetal bovine serum (in the case of the A549 cell line). Cells in the proliferative phase were seeded in a 96-well plate in triplicate and were cultured for 72 hours in the presence of the compound at various concentrations. At the completion of the culture period, an Alamar Blue solution (Invitrogen Corporation) was added to each culture in an amount of 1/10 of that of the medium, followed by leaving to stand for 3 hours. The fluorescence intensity was measured with Fluoroskan Ascent (Thermo Fisher Scientific K.K.). […] The fluorescence intensities of experimental groups were determined as relative intensities to that of the control group and were plotted. The concentration of a compound for achieving the 50% growth inhibition (IC50) of each cancer cell line was calculated by a non-linear regression model of standard slope using the GraphPad Prism software."}, "[2]": {"system": "A172 cell line derived from human glioblastoma cells", "experiment": "Antiproliferative activity test (Alamar Blue, 72 hours)", "assay_type": "cell-based", "conditions": "read-out: IC50 (50% growth inhibition)", "excerpt": "as §1"}, "[3]": {"system": "Hemicentrotus pulcherrimus", "conditions": "Non Patent Literature 1; cited from earlier work"}, "[4]": {"system": "Rb phosphorylation in A549 cell line", "experiment": "Activity of cell cycle regulator Rb by Western blotting", "assay_type": "cell-based, human", "conditions": "A549 exposed to 0.01 to 5 μM for 72 hours"}, "[5]": {"system": "A549 cell line derived from lung cancer", "experiment": "Antiproliferative activity test (Alamar Blue, 72 hours)", "assay_type": "cell-based, human", "conditions": "read-out: IC50 (50% growth inhibition)", "excerpt": "as §1"}, "[6]": {"system": "H460 cell line derived from lung cancer", "experiment": "Antiproliferative activity test (Alamar Blue, 72 hours)", "assay_type": "cell-based, human", "conditions": "read-out: IC50 (50% growth inhibition)", "excerpt": "as §1"}, "[7]": {"system": "NCI-H460 (human lung large cell carcinoma)", "experiment": "Drug sensitivity test, panel of human cultured cancer cell lines (sulforhodamine B colorimetry)", "assay_type": "cell-based", "description": "(§2) The anticancer activity of exiguolide was examined by an in vitro drug sensitivity test using a panel of 39 human cultured cancer cell lines, by Professor Yamori, Molecular Pharmacology, Cancer Chemotherapy Center of Japanese Foundation for Cancer Research upon request.\n(§3) The test was performed by seeding seven lung cancer cell lines, six gastric cancer cell lines, five colon cancer cell lines, five ovarian cancer cell lines, six brain cancer cell lines, five breast cancer cell lines, two kidney cancer cell lines, two prostatic cancer cell lines, and one melanoma cell line, 39 cell lines in total, in a 96-well plate, adding a sample solution containing a predetermined concentration of exiguolide to each well on the following day, culturing the cell lines for two days, and measuring the cell growth by colorimetry with sulforhodamine B. The measurement results were input into a computer, and the sensitivity patterns (growth rate and finger print, described below) of each cell line on exiguolide were analyzed using three parameters, GI50, TGI, and LC50, as indices. The data were also subjected to analysis comparing with sensitivities on known compounds showing cell growth-inhibiting activities.\n(§4) The growth rate percentages were plotted with respect to drug concentrations (logarithm) for each cell line, and the growth rates (%) were summarized on each organ cancer (FIG. 3: dose-response curves). In each curve, the concentrations at the points at which the growth rates 50%, 0%, and -50% intersect horizontal lines correspond to log GI50, log TGI, and log LC50, respectively.\n(§5) The average of log GI50 values of all cell lines tested was determined. The difference between this average and log GI50 value of each cell line (e.g., how much the GI50 of each cell line is high or low relative to the average is shown as logarithmic value) was determined, and the results were drawn as a bar graph extending left or right from the center showing the average log GI50 value (scale: 0) to form finger prints (FIG. 4). A cell line having higher sensitivity is drawn as a longer bar extending to the right side."}, "[8]": {"system": "SK-OV-3 (human ovarian carcinoma)", "experiment": "Drug sensitivity test, panel of human cultured cancer cell lines (sulforhodamine B colorimetry)", "assay_type": "cell-based", "description": "as §2, §3, §4, §5"}, "[9]": {"system": "A549 (human lung adenocarcinoma)", "experiment": "Drug sensitivity test, panel of human cultured cancer cell lines (sulforhodamine B colorimetry)", "assay_type": "cell-based", "description": "as §2, §3, §4, §5"}, "[10]": {"system": "MKN74 (human gastric carcinoma)", "experiment": "Drug sensitivity test, panel of human cultured cancer cell lines (sulforhodamine B colorimetry)", "assay_type": "cell-based", "description": "as §2, §3, §4, §5"}, "H460 cell line": {"system": "H460 cell line", "conditions": "H460 exposed to 1 μM", "description": "The cell-cycle arrest activity of exiguolide was investigated. The H460 cell line was exposed to 1 μM of exiguolide, and the ratio of cells at each cell cycle phase was measured with a flow cytometer. The DNA staining reagent used was propidium iodide. The A549 cell line was exposed to exiguolide (0.01 to 5 μM) for 72 hours, and then the activity of a cell cycle regulator, Rb, was measured by Wester blotting."}, "[11]": {"system": "tumors induced by human lung cancer cell line H460", "experiment": "In vivo antitumor activity test, subcutaneous tumor in immunodeficient mice", "parameters": "species or system mice (BALB/cAJcl-nu/nu)", "conditions": "0.2 mg/kg intraperitoneally once a day, 15 days", "description": "(§6) Immunodeficient mice (BALB/cAJcl-nu/nu) were subcutaneously inoculated with human lung cancer cells (H460, A549, etc.). When the subcutaneous tumor volume reached approximately 200 mm^3, the mice were divided into an exiguolide administration group (n=2) and a control group (n=4) at random. The administration group was intraperitoneally administered with 0.2 mg/kg of exiguolide, and the control group with PBS (200 μL) and DMSO (5 to 10 μL), every day (once a day). […] The subcutaneous tumors were recognized from the body surface, and the change in tumor diameter was measured with a vernier caliper. […] After completion of the observation, the mice were euthanized with halothane. The tumors were extracted and were subjected to observation of the size, weight, and pathological findings.\n(§7) The results are shown in FIG. 8 (H460) and FIG. 9 (A549). In each graph, the vertical axis (relative volume) represents the relative values of the estimated tumor volume of each group to that on the day 0, where the estimated tumor volume is expressed using a major axis “a” and a minor axis “b” by (a×b^2)/2."}, "[12]": {"system": "tumors induced by human lung cancer cell line A549", "experiment": "In vivo antitumor activity test, subcutaneous tumor in immunodeficient mice", "parameters": "species or system mice (BALB/cAJcl-nu/nu)", "conditions": "printed 'in the H460 cell line', 0.2 mg/kg intraperitoneally once a day", "description": "as §6, §7"}, "NCI-H460 cell line": {"system": "NCI-H460 cell line", "conditions": "National Cancer Institute database; cited from earlier work"}, "A549 cell line": {"system": "A549 cell line", "conditions": "National Cancer Institute database; cited from earlier work"}, "SK-OV-3 cell line": {"system": "SK-OV-3 cell line", "conditions": "National Cancer Institute database; cited from earlier work"}, "[13]": {"conditions": "concentration inducing 50% growth inhibition, two days culture"}, "[14]": {"conditions": "concentration inducing 50% cell death, read-out: LC50 (the source's name)"}}}
{"smiles": "CCCCC=C/C=C/C1OC(=O)CC2C[C@H](O)C[C@H](CC3CCC[C@H](C[C@@H](C)/C=C/[C@@H]1C)O3)O2", "note": "(stereo partly shown) [analog 4]", "values": [{"measurement": "cell growth-inhibiting effect", "setting": "[1]", "value": "remarkable cell growth-inhibiting effects"}, {"measurement": "induction of cell death", "setting": "[1]", "value": "active induction of cell death was observed"}]}
{"smiles": "COC(=O)C/C(C)=C/C=C\\C=C\\C1OC(=O)CC2C[C@H](O)C[C@H](CC3CCC[C@H](C[C@@H](C)/C=C/[C@@H]1C)O3)O2", "note": "(stereo partly shown) [analog 1]", "values": [{"measurement": "cell growth-inhibiting effect", "setting": "[1]", "value": "remarkable cell growth-inhibiting effects"}, {"measurement": "induction of cell death", "setting": "[1]", "value": "active induction of cell death was observed"}]}
{"smiles": "COC(=O)/C=C1\\C[C@H]2CC(=O)O[C@@H](/C=C/C=C\\C=C(/C)CC(=O)OC)[C@@H](C)/C=C/[C@H](C)C[C@H]3CCC[C@@H](C[C@@H](C1)O2)O3", "note": "[exiguolide, (−)exiguolide]", "values": [{"measurement": "IC50", "setting": "[2]", "value": 460, "unit": "nM"}, {"measurement": "activity of inhibiting maturation of ova and spermatozoa", "setting": "[3]", "value": "activity of inhibiting maturation of ova and spermatozoa"}, {"measurement": "phosphorylation of G1-regulating protein Rb", "setting": "[4]", "value": "decreased with an increase in concentration of exiguolide"}, {"measurement": "IC50", "setting": "[5]", "value": 590, "unit": "nM"}, {"measurement": "IC50", "setting": "[6]", "value": 280, "unit": "nM"}, {"measurement": "LC50", "setting": "[7]; concentration inducing 50% cell death", "value": "> 100000", "unit": "nM"}, {"measurement": "GI50", "setting": "[7]; [13]", "value": 10, "unit": "nM"}, {"measurement": "Log GI50", "setting": "[7]; [13]", "value": "−8.00"}, {"measurement": "CC50", "setting": "[8]; [14]", "value": "> 100000", "unit": "nM"}, {"measurement": "GI50", "setting": "[8]; [13]", "value": 700, "unit": "nM"}, {"measurement": "Log GI50", "setting": "[8]; [13]", "value": "−6.15"}, {"measurement": "CC50", "setting": "[9]; [14]", "value": "> 100000", "unit": "nM"}, {"measurement": "GI50", "setting": "[9]; [13]", "value": 650, "unit": "nM"}, {"measurement": "Log GI50", "setting": "[9]; [13]", "value": "−6.19"}, {"measurement": "CC50", "setting": "[10]; [14]", "value": "> 100000", "unit": "nM"}, {"measurement": "GI50", "setting": "[10]; [13]", "value": 690, "unit": "nM"}, {"measurement": "Log GI50", "setting": "[10]; [13]", "value": "−6.16"}, {"measurement": "ratio of cells at G1 phase in cell cycle", "setting": "H460 cell line", "value": "consistently increased the ratio of the G1 phase in cell cycle"}, {"measurement": "relative tumor weight of administration group at the end of the experiment", "setting": "[11]", "value": 3.35}, {"measurement": "relative tumor weight ratio (administration group/control group) at the end of the experiment", "setting": "[11]", "value": 0.17}, {"measurement": "relative tumor weight ratio (administration group/control group) at the end of the experiment", "setting": "[12]; second of two ratios", "value": 0.33}, {"measurement": "relative tumor weight of administration group at the end of the experiment", "setting": "[12]; second of two values", "value": 1.17}]}
{"smiles": "COC(=O)C/C(C)=C/C=C\\C=C\\C1OC(=O)CC2CC(=O)C[C@H](CC3CCC[C@H](C[C@@H](C)/C=C/[C@@H]1C)O3)O2", "note": "(stereo partly shown) [analog 7]", "values": [{"measurement": "cell growth-inhibiting effect", "setting": "[1]", "value": "remarkable cell growth-inhibiting effects"}, {"measurement": "induction of cell death", "setting": "[1]", "value": "active induction of cell death was observed"}]}
{"smiles": "CCC/C=C/C=C/C(=O)O[C@H]1/C(=C/C(=O)OC)C[C@H]2C[C@H]([C@@H](C)O)OC(=O)C[C@H](O)C[C@@H]3C[C@H](OC(C)=O)C(C)(C)[C@](O)(C[C@@H]4C/C(=C/C(=O)OC)C[C@H](/C=C/C(C)(C)[C@]1(O)O2)O4)O3", "note": "[bryostatin 1]", "values": [{"measurement": "antiproliferative activity (log value compared with Log GI50)", "setting": "NCI-H460 cell line", "value": "−5.6"}, {"measurement": "antiproliferative activity (log value compared with Log GI50)", "setting": "A549 cell line", "value": "−5.4"}, {"measurement": "antiproliferative activity (log value compared with Log GI50)", "setting": "SK-OV-3 cell line", "value": "−5.3"}]}
